Among the data in patent US10053468B2, “Heterocyclic compound” (TAKEDA PHARMACEUTICAL COMPANY LIMITED, priority 2013, dated 2018) are inhibition and inhibition in vivo values, retold here.

Each structure is given as a SMILES string. Where two headings read alike, the source gives them in different places.

Assay [1] concerns the target T1, RORγt (Homo sapiens, UniProt P51449).
T1 sequence (P51449 1-497 isoform P51449-2): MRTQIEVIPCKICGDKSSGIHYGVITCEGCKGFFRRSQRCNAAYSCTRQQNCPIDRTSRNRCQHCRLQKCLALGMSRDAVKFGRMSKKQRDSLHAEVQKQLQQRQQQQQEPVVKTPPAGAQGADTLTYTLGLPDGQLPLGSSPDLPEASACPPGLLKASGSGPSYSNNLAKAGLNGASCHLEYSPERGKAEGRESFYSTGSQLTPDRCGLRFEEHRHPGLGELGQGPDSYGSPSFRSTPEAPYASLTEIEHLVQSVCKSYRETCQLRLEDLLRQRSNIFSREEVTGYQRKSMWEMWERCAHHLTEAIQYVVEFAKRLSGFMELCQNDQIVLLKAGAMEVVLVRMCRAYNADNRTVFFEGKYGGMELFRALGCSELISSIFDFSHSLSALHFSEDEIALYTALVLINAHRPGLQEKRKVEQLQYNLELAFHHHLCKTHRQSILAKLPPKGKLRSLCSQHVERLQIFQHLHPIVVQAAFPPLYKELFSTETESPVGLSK
Description: RORγt binding test using fluorescent-labeled synthetic ligand (TR-FRET). The following applies: read-out: Binding inhibitory rate of fluorescent-labeled synthetic ligand to RORγt at test compound 1 μM (%). In outline: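 His-tagged RORγt (diluted to 240 nM) with compound, then fluorescent synthetic ligand (diluted to 12 μM), 20 min at room temperature, followed by Tb anti-His antibody (diluted to 8 nM), 20 min.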
(In general: Time-resolved FRET reads energy transfer from a long-lived donor to a nearby acceptor.)

A further assay relates to IL-17A gene expression. Kind of assay: Effect on IL-23-induced cytokine expression in mice. The format is in vivo, Balb/c mice. Conditions: Mus musculus, 30 min before and 8 hr after IL-23, versus the negative control group, read-out: Percent inhibition of IL-17A gene expression; for inhibition in vivo at 10 mg/kg: dose 10 mg/kg oral; for inhibition in vivo at 30 mg/kg: dose 30 mg/kg oral. How it is done:
Effect on IL-23-induced Cytokine Expression in Mice
A mouse IL-23 solution (500 ng/10 μL, prepared by Takeda Pharmaceutical Company Limited) or PBS (10 μL, negative control group) was administered intradermally in the ear of Balb/c mice (Charles River Japan, male, 7 weeks old). Twenty-four hr after administration, the ear was resected under isoflurane anesthesia. The test compound was suspended in 0.5% methylcellulose and administered orally 30 min before and 8 hr after IL-23 administration.
RNA extraction from the ear tissue and quantitative PCR were performed as follows. Specifically, ear tissue 5 mm in diameter was punched from an area of the resected ear centering on the IL-23 injection site, and the tissue was immersed in RNAlater (QIAGEN) for at least 18 hr. The RNAlater-treated ear tissue was homogenized in 350 μL of RLT buffer (RNeasy mini kit, QIAGEN) and treated (55° C., 10 min) with Proteinase K (QIAGEN). Total RNA was then extracted according to the RNeasy mini kit protocol. The RNA thus obtained was then reverse transcribed into cDNA using the High-Capacity RNA-to-cDNA kit (Applied Biosystems), and the amount of each cytokine expressions was measured by real-time PCR (Viia7™, Applied Biosystems). The PCR buffer used was TaqMan Fast Advanced Master Mix (Applied Biosystems), and TaqMan Gene Expression Assays (Applied Biosystems) Mm00439618 ml (IL-17A) and 4352341E (β-actin) were used for cytokine gene detection. The IL-17A gene expression level was normalized to the R-actin gene expression level, and the percent inhibition of IL-17A gene expression with the test compound was then calculated.
The results obtained with the above-described method (percent inhibition of IL-17A gene expression with oral administration of the test compound) are shown in Table 5.

Assay [2] concerns the target T1, RORγt. Description: Cofactor recruitment test (Alpha Screen, biotinylated SRC-1 peptide). The format is biochemical. Conditions: read-out: Signal value inhibitory rate at test compound 1 μM (%). As to the method:
Cofactor Recruitment Test
Cofactor recruitment test was performed by Alpha Screen (Histidine Detection Kit, PerkinElmer) method. First, a test compound was diluted with an assay buffer (50 mM Tris-HCl (pH 7.5), 50 mM KCl, 1 mM DTT, 0.1% BSA) and added to a 384 well plate by 5 μL. […] The mixture was stood in a dark place for 1 hr, and the signal value was measured by Envision (PerkinElmer).

The target of assay [3] is T1, RORγt. Kind of assay: Jurkat reporter test (human IL-17 ROR response element luciferase, RORγt vector). The assay is classed as cell-based. Conditions: read-out: Luminescence level inhibitory rate at test compound 3 μM (%). In outline:
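Luminescence (Bright-Glo, 10 min, RT) was measured after overnight compound treatment of electroporated Jurkat cells (1350 V, 10 ms interval, 3 pulses). The reaction medium was RPMI with 10% lipid-reduced FCS, 10 mM HEPES (pH 7.5) and 5 μM lovastatin.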

Assay [4] deals with T1, RORγt. Kind of assay: RORγt binding test using fluorescent-labeled cholesterol (TR-FRET). The following applies: read-out: Binding inhibitory rate of fluorescent-labeled cholesterol to RORγt at test compound 1 μM (%). In outline:
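After 20 min at room temperature with His-tagged RORγt and BODIPY-cholesterol in pH 7.5 Tris buffer (NaCl, DTT, BSA), compound wells got terbium anti-His antibody for another 20 min. Time-resolved FRET was read with excitation 320 nm, emission 520 nm and a 100 µs delay.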

For assay [5], the system named is IL-17 production in human blood. Kind of assay: Effect on IL-17 production in human blood. The assay is classed as cell-based. The following applies: 72 h, 10 μM test compound, IL-23 and Dynabeads stimulation, 3 days, read-out: Percent Inhibition at 10 μM (IL-17 production). As to the method:
Effect on IL-17 Production in Human Blood
The inhibitory effect of the test compound on IL-17 production in human blood was evaluated as follows. First, 150 μL of peripheral blood collected from healthy individuals using heparinized vacuum blood collection tubes was dispensed into each well of a 96-well plate (Corning), and 45 μL of RPMI 1640 medium (Gibco) containing 10% fetal bovine serum (FBS, Hyclone) and 30 μL of the test compound diluted with the medium was added to each well. The plate was then cultured for 30 min at 37° C. Cells were subsequently stimulated by adding 30 μL of 100 ng/mL human IL-23 (R&D) and 45 μL of Dynabeads Human (Invitrogen) to each well and culturing the plate for 3 days at 37° C. In wells without stimulation, 75 μL of RPMI 1640 medium containing 10% FBS was added instead of the IL-23 and Dynabeads solution. After culturing for 3 days, the culture supernatant was collected, and the amount of IL-17 in the supernatant was measured using an IL-17 ELISA kit (R&D).
The results of the above-described measurements (percent inhibition of IL-17 production with 10 μM of the test compound) are shown in Table 4.

Where [6] appears, read: test compound 3 μM, Jurkat cells.

Take `COc1ccc2c(c1)CCN(C(=O)c1cc(O)no1)[C@H]2C(=O)Nc1cc(F)c2c(c1)CCC2(C)C` [Example 68, (1R)-N-(7-fluoro-1,1-dimethyl-2,3-dihydro-1H-inden-5-yl)-2-((3-hydroxy-1,2-oxazol-5-yl)carbonyl)-6-methoxy-1,2,3,4-tetrahydroisoquinoline-1-carboxamide]: the inhibition at 1 µM worked out at 101% at RORγt [1], 73% at RORγt [2] and 103% on RORγt [4]. In the assay with IL-17A gene expression (dose 100 mg/kg oral), the inhibition in vivo at 100 mg/kg is 90%. Also, the inhibition at 3 µM on RORγt [3] (setting [6]) turned out to be 99%.
On to `COc1ccc2c(c1)CCN(C(=O)CCCC(=O)O)[C@H]2C(=O)Nc1cc(F)c([Si](C)(C)C)c(F)c1` [Example 82, 5-((1R)-1-((3,5-difluoro-4-(trimethylsilyl)phenyl)carbamoyl)-6-methoxy-3,4-dihydroisoquinolin-2(1H)-yl)-5-oxopentanoic acid], for which the inhibition at 10 µM in assay [5] worked out at 75%. Also, in the assay on IL-17A gene expression, the inhibition in vivo at 10 mg/kg came to 85%.
As for `COc1ccc2c(c1)CCN(C(=O)CCCC(=O)O)[C@H]2C(=O)Nc1ccc([Si](C)(C)C)c(F)c1` [Example 135, 5-((1R)-1-((3-fluoro-4-(trimethylsilyl)phenyl)carbamoyl)-6-methoxy-3,4-dihydroisoquinolin-2(1H)-yl)-5-oxopentanoic acid], the results for the inhibition at 1 µM at RORγt [1], on RORγt [2] and on RORγt [4] were 101%, 97% and 102%, respectively. In the assay with IL-17A gene expression, the inhibition in vivo at 30 mg/kg amounted to 68%. On RORγt [3] (Jurkat), the inhibition at 3 µM was determined as 104%.
Consider `COCc1ccc2c(c1)CCN(C(=O)CCCC(=O)O)[C@H]2C(=O)Nc1cc(F)c(C(C)(C)C)c(F)c1` [Example 144, 5-((1R)-1-((4-tert-butyl-3,5-difluorophenyl)carbamoyl)-6-(methoxymethyl)-3,4-dihydroisoquinolin-2 (1H)-yl)-5-oxopentanoic acid], for which the inhibition at 10 µM in assay [5] is 86%. The results for the inhibition at 1 µM on RORγt [1], on RORγt [2] and at RORγt [4] were 101%, 97% and 101%, respectively. Moreover, the inhibition at 3 µM on RORγt [3] (setting [6]) was determined as 101%.
As for `COc1ccc2c(c1)CCN(C(=O)CCCC(=O)O)[C@H]2C(=O)Nc1cc(F)c2c(c1)CCC2(C)C` [Example 176, 5-((1R)-1-((7-fluoro-1,1-dimethyl-2,3-dihydro-1H-inden-5-yl)carbamoyl)-6-methoxy-3,4-dihydroisoquinolin-2 (1H)-yl)-5-oxopentanoic acid], the inhibition in vivo at 30 mg/kg in the assay with IL-17A gene expression stood at 91%.
As for `CCOc1ccc2c(c1)CCN(C(=O)CCCC(=O)O)[C@H]2C(=O)Nc1cc(F)c([Si](C)(C)C)c(F)c1` [Example 179, 5-((1R)-1-((3,5-difluoro-4-(trimethylsilyl)phenyl)carbamoyl)-6-ethoxy-3,4-dihydroisoquinolin-2(1H)-yl)-5-oxopentanoic acid], the inhibition at 10 µM in assay [5] is 82%. In addition, the values for the inhibition at 1 µM at RORγt [1] and on RORγt [2] were 101% and 94%, respectively. For the same compound, in the assay on IL-17A gene expression, the inhibition in vivo at 30 mg/kg was determined as 95%. For the same compound, the inhibition at 3 µM at RORγt [3] (Jurkat) came out at 102%.
`COc1ccc2c(c1)CCN(C(=O)N1CC(CC(=O)O)C1)[C@H]2C(=O)Nc1cc(F)c([Si](C)(C)C)c(F)c1` [Example 260, (1-(((1R)-1-((3,5-difluoro-4-(trimethylsilyl)phenyl)carbamoyl)-6-methoxy-3,4-dihydroisoquinolin-2(1H)-yl)carbonyl)azetidin-3-yl)acetic acid]: in assay [5], the inhibition at 10 µM amounted to 89%. For the same compound, the inhibition at 1 µM is 102% on RORγt [1] and 95% on RORγt [2]. The inhibition in vivo at 10 mg/kg with IL-17A gene expression stood at 76%. Besides, the inhibition at 3 µM on RORγt [3] (Jurkat) was found to be 101%.
Regarding `CCOc1ccc2c(c1)CCN(C(=O)CC[C@H](C)C(=O)O)[C@H]2C(=O)Nc1cc(F)c2c(c1)CCC2(C)C` [Example 266, (2S)-5-((1R)-6-ethoxy-1-((7-fluoro-1,1-dimethyl-2,3-dihydro-1H-inden-5-yl)carbamoyl)-3,4-dihydroisoquinolin-2(1H)-yl)-2-methyl-5-oxopentanoic acid], the inhibition at 10 µM in assay [5] was 88%.
Turning to `COc1ccc2c(n1)CCN(C(=O)N1CC(CC(=O)O)C1)[C@H]2C(=O)Nc1cc(F)c2c(c1)CCC2(C)C` [Example 273, (1-(((5R)-5-((7-fluoro-1,1-dimethyl-2,3-dihydro-1H-inden-5-yl)carbamoyl)-2-methoxy-7,8-dihydro-1,6-naphthyridin-6(5H)-yl)carbonyl)azetidin-3-yl)acetic acid], the inhibition at 10 µM in assay [5] was 89%. Moreover, the inhibition in vivo at 10 mg/kg with IL-17A gene expression is 77%.
For the compound `COc1ccc2c(c1)CCN(C(=O)N1CC(CC(=O)O)C1)[C@H]2C(=O)Nc1ccc([Si](C)(C)C)c(F)c1` [Example 279, (1-(((1R)-1-((3-fluoro-4-(trimethylsilyl)phenyl)carbamoyl)-6-methoxy-3,4-dihydroisoquinolin-2(1H)-yl)carbonyl)azetidin-3-yl)acetic acid], the figures for the inhibition at 1 µM at RORγt [1] and at RORγt [2] were 102% and 89%, respectively. Also, in the assay with IL-17A gene expression, the inhibition in vivo at 10 mg/kg was determined as 71%. In addition, on RORγt [3] (Jurkat), the inhibition at 3 µM turned out to be 100%.
`COc1ccc2c(n1)CCN(C(=O)N1CC(CC(=O)O)C1)[C@H]2C(=O)Nc1cc(F)c([Si](C)(C)C)c(F)c1` [Example 281, (1-(((5R)-5-((3,5-difluoro-4-(trimethylsilyl)phenyl)carbamoyl)-2-methoxy-7,8-dihydro-1,6-naphthyridin-6(5H)-yl)carbonyl)azetidin-3-yl)acetic acid]: the figures for the inhibition at 1 µM at RORγt [1] and on RORγt [2] were 102% and 89%, respectively. Moreover, the inhibition in vivo at 10 mg/kg in the assay on IL-17A gene expression stood at 93%. For the same compound, the inhibition at 3 µM at RORγt [3] (Jurkat) turned out to be 102%.
